Assay results as given in the supplement of paper PMC10307832.

Legend:
Assay in all cases: relative viability (nuclei count vs DMSO), 5 days (fraction); higher = more cells survive
NCI-H1355 = system: NCI-H1355
Outline: (§1)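 Dosing by pin tool came one day after lung cancer cell lines were seeded in 1536-well plates, using either one drug or a fixed anchor-drug dose plus five library-drug doses (not always all listed) in √10 steps. After 5 days, nuclei were counted on 4× images. Relative viability is treated-well nuclei count divided by vehicle-well nuclei count, and values are medians of duplicate plates.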

NCI-H2009 = system: NCI-H2009
Outline: as §1

NCI-H1755 = system: NCI-H1755
Outline: as §1

NCI-H358 = system: NCI-H358
Outline: as §1

NCI-H647 = system: NCI-H647
Outline: as §1

NCI-H2228 = system: NCI-H2228
Outline: as §1

COR-L23 = system: COR-L23
Outline: as §1

NCI-H1793 = system: NCI-H1793
Outline: as §1

HOP-62 = system: HOP-62
Outline: as §1

SK-MES-1 = system: SK-MES-1
Outline: as §1

HCC-15 = system: HCC-15
Outline: as §1

COR-L 105 = system: COR-L 105
Outline: as §1

NCI-H2342 = system: NCI-H2342
Outline: as §1

NCI-H1993 = system: NCI-H1993
Outline: as §1

EKVX = system: EKVX
Outline: as §1

HARA = system: HARA
Outline: as §1

NCI-H1734 = system: NCI-H1734
Outline: as §1

NCI-H1395 = system: NCI-H1395
Outline: as §1

UMC-11 = system: UMC-11
Outline: as §1

NCI-H2170 = system: NCI-H2170
Outline: as §1

NCI-H2347 = system: NCI-H2347
Outline: as §1

PC-14 = system: PC-14
Outline: as §1

NCI-H838 = system: NCI-H838
Outline: as §1

Structure (SMILES): O=C(O)c1ccc(-c2c[nH]c3ncc(-c4ccccc4)cc23)cc1C1CCCC1 + Nc1nc2[nH]cc(CCc3ccc(C(=O)N[C@@H](CCC(=O)O)C(=O)O)cc3)c2c(=O)[nH]1 [Pemetrexed] (partner 0.2 µM)
- relative viability (NCI-H1355; first compound 0.04 µM): 0.991
- relative viability (NCI-H1355; first compound 0.1265 µM): 1.13
- relative viability (NCI-H1355; first compound 0.4 µM): 1.12
- relative viability (NCI-H1355; first compound 1.265 µM): 0.756
- relative viability (NCI-H2009; first compound 0.04 µM): 1.03
- relative viability (NCI-H2009; first compound 0.1265 µM): 1.11
- relative viability (NCI-H2009; first compound 0.4 µM): 1.03
- relative viability (NCI-H2009; first compound 1.265 µM): 0.946
- relative viability (NCI-H1755; first compound 0.04 µM): 0.412
- relative viability (NCI-H1755; first compound 0.1265 µM): 0.449
- relative viability (NCI-H1755; first compound 0.4 µM): 0.405
- relative viability (NCI-H1755; first compound 1.265 µM): 0.436
- relative viability (NCI-H358; first compound 0.04 µM): 0.17
- relative viability (NCI-H358; first compound 0.1265 µM): 0.186
- relative viability (NCI-H358; first compound 0.4 µM): 0.181
- relative viability (NCI-H358; first compound 1.265 µM): 0.148
- relative viability (NCI-H647; first compound 0.04 µM): 0.165
- relative viability (NCI-H647; first compound 0.1265 µM): 0.171
- relative viability (NCI-H647; first compound 0.4 µM): 0.182
- relative viability (NCI-H647; first compound 1.265 µM): 0.148
- relative viability (NCI-H2228; first compound 0.04 µM): 0.349
- relative viability (NCI-H2228; first compound 0.1265 µM): 0.294
- relative viability (NCI-H2228; first compound 0.4 µM): 0.348
- relative viability (NCI-H2228; first compound 1.265 µM): 0.29
- relative viability (COR-L23; first compound 0.04 µM): 0.191
- relative viability (COR-L23; first compound 0.1265 µM): 0.196
- relative viability (COR-L23; first compound 0.4 µM): 0.194
- relative viability (COR-L23; first compound 1.265 µM): 0.184
- relative viability (NCI-H1793; first compound 0.04 µM): 0.83
- relative viability (NCI-H1793; first compound 0.1265 µM): 1.19
- relative viability (NCI-H1793; first compound 0.4 µM): 0.865
- relative viability (NCI-H1793; first compound 1.265 µM): 0.882
- relative viability (HOP-62; first compound 0.04 µM): 0.327
- relative viability (HOP-62; first compound 0.1265 µM): 0.389
- relative viability (HOP-62; first compound 0.4 µM): 0.307
- relative viability (HOP-62; first compound 1.265 µM): 0.351
- relative viability (SK-MES-1; first compound 0.04 µM): 0.959
- relative viability (SK-MES-1; first compound 0.1265 µM): 1.1
- relative viability (SK-MES-1; first compound 0.4 µM): 0.941
- relative viability (SK-MES-1; first compound 1.265 µM): 0.722
- relative viability (HCC-15; first compound 0.04 µM): 0.206
- relative viability (HCC-15; first compound 0.1265 µM): 0.227
- relative viability (HCC-15; first compound 0.4 µM): 0.215
- relative viability (HCC-15; first compound 1.265 µM): 0.188
- relative viability (COR-L 105; first compound 0.04 µM): 1.06
- relative viability (COR-L 105; first compound 0.1265 µM): 1.19
- relative viability (COR-L 105; first compound 0.4 µM): 1.19
- relative viability (COR-L 105; first compound 1.265 µM): 1.08
- relative viability (NCI-H2342; first compound 0.04 µM): 0.804
- relative viability (NCI-H2342; first compound 0.1265 µM): 0.816
- relative viability (NCI-H2342; first compound 0.4 µM): 0.765
- relative viability (NCI-H2342; first compound 1.265 µM): 0.74
- relative viability (NCI-H1993; first compound 0.04 µM): 0.603
- relative viability (NCI-H1993; first compound 0.1265 µM): 0.622
- relative viability (NCI-H1993; first compound 0.4 µM): 0.617
- relative viability (NCI-H1993; first compound 1.265 µM): 0.59
- relative viability (EKVX; first compound 0.04 µM): 0.397
- relative viability (EKVX; first compound 0.1265 µM): 0.576
- relative viability (EKVX; first compound 0.4 µM): 0.376
- relative viability (EKVX; first compound 1.265 µM): 0.409
- relative viability (HARA; first compound 0.04 µM): 0.23
- relative viability (HARA; first compound 0.1265 µM): 0.237
- relative viability (HARA; first compound 0.4 µM): 0.222
- relative viability (HARA; first compound 1.265 µM): 0.252
- relative viability (NCI-H1734; first compound 0.04 µM): 0.413
- relative viability (NCI-H1734; first compound 0.1265 µM): 0.43
- relative viability (NCI-H1734; first compound 0.4 µM): 0.428
- relative viability (NCI-H1734; first compound 1.265 µM): 0.411
- relative viability (NCI-H1395; first compound 0.04 µM): 0.949
- relative viability (NCI-H1395; first compound 0.1265 µM): 1.14
- relative viability (NCI-H1395; first compound 0.4 µM): 0.774
- relative viability (NCI-H1395; first compound 1.265 µM): 0.858
- relative viability (UMC-11; first compound 0.04 µM): 0.703
- relative viability (UMC-11; first compound 0.1265 µM): 0.719
- relative viability (UMC-11; first compound 0.4 µM): 0.693
- relative viability (UMC-11; first compound 1.265 µM): 0.653
- relative viability (NCI-H2170; first compound 0.04 µM): 0.265
- relative viability (NCI-H2170; first compound 0.1265 µM): 0.263
- relative viability (NCI-H2170; first compound 0.4 µM): 0.247
- relative viability (NCI-H2170; first compound 1.265 µM): 0.282
- relative viability (NCI-H2347; first compound 0.04 µM): 0.435
- relative viability (NCI-H2347; first compound 0.1265 µM): 0.453
- relative viability (NCI-H2347; first compound 0.4 µM): 0.454
- relative viability (NCI-H2347; first compound 1.265 µM): 0.398
- relative viability (PC-14; first compound 0.04 µM): 0.135
- relative viability (PC-14; first compound 0.1265 µM): 0.143
- relative viability (PC-14; first compound 0.4 µM): 0.145
- relative viability (PC-14; first compound 1.265 µM): 0.125
- relative viability (NCI-H838; first compound 0.04 µM): 0.25
- relative viability (NCI-H838; first compound 0.1265 µM): 0.265
- relative viability (NCI-H838; first compound 0.4 µM): 0.253
- relative viability (NCI-H838; first compound 1.265 µM): 0.227
